Data as given in patent US8362018B2, “Substituted imidazo[1,2-a]pyrazine compounds useful for the treatment of viral infections” (Biofocus DPI, Ltd., priority 2007, dated 2013).

Key:
[1] = system: HCV replicon; test: anti-viral assay (EC50), Table 13; format: cell-based; conditions: Hepatitis C virus, anti-viral assays
Description: The ability of a compound to inhibit HCV replication can be measured in vitro or using animal models using models and assays well known to those of skill in the art (e.g. Pietschmann et al, Clin Liver Dis. 7(1)c23-43, 2003). In vitro techniques for measuring the ability of a compound to inhibit HCV replication involve using HCV or an HCV replicon. Because HCV is difficult to grow in culture, particular in vitro techniques employ an HCV replicon.
An HCV replicon is an RNA molecule able to autonomously replicate in a cultured cell, such as Huh7. The HCV replicon expresses the HCV derived components of the replication machinery and contains cis-elements required for replication in a cultured cell. […]

[2] = cytotoxicity measurement (CC50), Table 13; format: cell-based; conditions: human, Huh7 cells

| Structure (SMILES) | EC50 [1] | CC50 [2] |
| --- | --- | --- |
| CC(=O)c1cccc(-c2cnc3c(NCCc4cccnc4)nccn23)c1 [Compound 84] | 1000 to 20000 nM | < 35 µM |
| Oc1cccc(-c2cnc3c(NCc4ccncc4)nccn23)c1 [Compound 6] | 1000 to 20000 nM | > 35 µM |
| COc1cc(CNc2nccn3c(-c4ccc(O)cc4)cnc23)cc(OC)c1OC [Compound 60] | 1000 to 20000 nM | < 35 µM |
| COc1ccc(-c2cnc3c(Nc4ccc(N5CCOCC5)cc4)nccn23)cc1OC [Compound 64] | 1000 to 20000 nM | < 35 µM |
| COc1ccc(-c2cnc3c(NCC4CCOCC4)nccn23)cc1OC [Compound 29] | 1000 to 20000 nM | < 35 µM |
| Oc1ccc(-c2cnc3c(NCc4ccccc4Cl)nccn23)cc1 [Compound 37] | 1000 to 20000 nM | > 35 µM |
| COc1ccc(CNc2nccn3c(-c4cccc(NS(C)(=O)=O)c4)cnc23)cc1 [Compound 83] | 1000 to 20000 nM | < 35 µM |
| NS(=O)(=O)c1ccc(CNc2nccn3c(-c4ccc(O)c(O)c4)cnc23)cc1 [Compound 89] | > 20000 nM | > 35 µM |
| COc1ccc(-c2cnc3c(NCCc4ccc(S(N)(=O)=O)cc4)nccn23)cc1OC [Compound 17] | 1000 to 20000 nM | < 35 µM |
| NS(=O)(=O)c1ccc(CNc2nccn3c(-c4ccccc4)cnc23)cc1 [Compound 74] | 1000 to 20000 nM | < 35 µM |
| COc1ccc(-c2cnc3c(NCCNC(C)=O)nccn23)cc1OC [Compound 26] | 1000 to 20000 nM | > 35 µM |
| NC(=O)c1cc(-c2cnc3c(NCc4ccc(S(N)(=O)=O)cc4)nccn23)ccc1O [Compound 94, 2-Hydroxy-5-[8-(4-sulfamoyl-benzylamino)-imidazo[1,2-a]pyrazin-3-yl]-benzamide] | 1000 to 20000 nM | > 35 µM |
| NS(=O)(=O)c1ccc(CNc2nccn3c(-c4ccc(O)c([N+](=O)[O-])c4)cnc23)cc1 [Compound 54] | 1000 to 20000 nM | > 35 µM |
| CS(=O)(=O)Nc1cccc(-c2cnc3c(NCc4ccc5c(c4)OCO5)nccn23)c1 [Compound 73] | 1000 to 20000 nM | < 35 µM |
| NS(=O)(=O)c1ccc(CNc2nccn3c(-c4ccc(F)cc4)cnc23)cc1 [Compound 11] | 1000 to 20000 nM | > 35 µM |
| NS(=O)(=O)c1ccc(CNc2nccn3c(-c4ccc5c(c4)OCO5)cnc23)cc1 [Compound 8] | 1000 to 20000 nM | < 35 µM |
| CS(=O)(=O)Nc1cccc(-c2cnc3c(NCc4ccc(S(N)(=O)=O)cc4)nccn23)c1 [Compound 71] | 1000 to 20000 nM | < 35 µM |
| CC(=O)Nc1cccc(-c2cnc3c(NCc4ccc(S(N)(=O)=O)cc4)nccn23)c1 [Compound 87] | 1000 to 20000 nM | < 35 µM |
| Oc1ccc(-c2cnc3c(NCc4ccccc4)nccn23)cc1 [Compound 24] | 1000 to 20000 nM | < 35 µM |
| COc1cccc(-c2cnc3c(NCc4ccc(S(N)(=O)=O)cc4)nccn23)c1 [Compound 12] | 1000 to 20000 nM | > 35 µM |
| Oc1ccc(-c2cnc3c(NCc4ccncc4)nccn23)cc1 [Compound 5] | 1000 to 20000 nM | > 35 µM |

| Structure (SMILES) | EC50 [1] | CC50 [2] |
| --- | --- | --- |
| NS(=O)(=O)c1ccc(CNc2nccn3c(-c4ccc(OC(F)(F)F)cc4)cnc23)cc1 [Compound 15] | > 20000 nM | > 35 µM |
| NS(=O)(=O)c1ccc(CNc2nccn3c(-c4cccc(CO)c4)cnc23)cc1 [Compound 75] | 1000 to 20000 nM | < 35 µM |
| Oc1ccc(-c2cnc3c(NCc4ccc(C(F)(F)F)cc4)nccn23)cc1 [Compound 39] | 1000 to 20000 nM | < 35 µM |
| Oc1cccc(-c2cnc3c(NCc4cccs4)nccn23)c1 [Compound 80] | 1000 to 20000 nM | < 35 µM |
| COc1cc(-c2cnc3c(NCc4ccc(S(N)(=O)=O)cc4)nccn23)ccc1O [Compound 20] | < 1000 nM | < 35 µM |
| Oc1ccc(-c2cnc3c(NCc4cccc(Cl)c4)nccn23)cc1 [Compound 99] | 1000 to 20000 nM | < 35 µM |
| COc1ccc(-c2cnc3c(NCc4ccc(NS(C)(=O)=O)cc4)nccn23)cc1OC [Compound 22] | 1000 to 20000 nM | > 35 µM |
| COc1ccc(-c2cnc3c(NCc4cnccn4)nccn23)cc1OC [Compound 23] | 1000 to 20000 nM | > 35 µM |
| COc1cc(-c2cnc3c(NCc4ccc(S(N)(=O)=O)cc4)nccn23)cc(Cl)c1O [Compound 31] | 1000 to 20000 nM | > 35 µM |
| COc1ccc(-c2cnc3c(NCc4ccc(CO)cc4)nccn23)cc1OC [Compound 93, (4-{[3-(3,4-Dimethoxy-phenyl)-imidazol[1,2-a]pyrazin-8-ylamino]-methyl}-phenyl)-methanol] | 1000 to 20000 nM | > 35 µM |
| Cc1ccc(CNc2nccn3c(-c4ccc(O)cc4)cnc23)cc1 [Compound 38] | 1000 to 20000 nM | > 35 µM |
| NS(=O)(=O)c1ccc(CNc2nccn3c(-c4ccc(O)cc4F)cnc23)cc1 [Compound 91, 4-{[3-(2-Fluoro-4-hydroxy-phenyl)-imidazo[1,2-a]pyrazin-8-ylamino]-methyl}-benzenesulfonamide] | < 1000 nM | > 35 µM |
| OCc1ccc(CNc2nccn3c(-c4ccc(O)cc4)cnc23)cc1 [Compound 47] | 1000 to 20000 nM | < 35 µM |
| CS(=O)(=O)c1ccc(CNc2nccn3c(-c4ccc(O)cc4)cnc23)cc1 [Compound 32] | 1000 to 20000 nM | > 35 µM |
| CS(=O)(=O)Nc1cccc(-c2cnc3c(NCCc4ccncc4)nccn23)c1 [Compound 4] | 1000 to 20000 nM | > 35 µM |
| COc1cc(-c2cnc3c(NCc4cccc(S(N)(=O)=O)c4)nccn23)ccc1O [Compound 56] | < 1000 nM | < 35 µM |
| CC(=O)c1cccc(-c2cnc3c(NCc4ccc(S(N)(=O)=O)cc4)nccn23)c1 [Compound 18] | 1000 to 20000 nM | > 35 µM |
| COc1ccc(-c2cnc3c(NCc4ccc(S(C)(=O)=O)cc4)nccn23)cc1OC [Compound 19] | 1000 to 20000 nM | > 35 µM |
| Oc1ccc(-c2cnc3c(NCc4ccc(Cl)cc4)nccn23)cc1 [Compound 34] | 1000 to 20000 nM | < 35 µM |
| COc1ccc(-c2cnc3c(NCc4cccc(Cl)c4)nccn23)cc1 [Compound 44] | 1000 to 20000 nM | < 35 µM |
| COc1ccc(-c2cnc3c(NCc4ccc(C(=O)O)cc4)nccn23)cc1OC [Compound 92, 4-{[3-(3,4-Dimethoxy-phenyl)-imidazo[1,2-a]pyrazin-8-ylamino]-methyl}-benzoic acid] | 1000 to 20000 nM | > 35 µM |

| Structure (SMILES) | EC50 [1] | CC50 [2] |
| --- | --- | --- |
| Nc1ccc(-c2cnc3c(NCc4ccc(S(N)(=O)=O)cc4)nccn23)cc1 [Compound 50] | 1000 to 20000 nM | > 35 µM |
| COc1ccc(-c2cnc3c(NCc4cccs4)nccn23)cc1OC [Compound 66] | 1000 to 20000 nM | < 35 µM |
| COc1ccc(-c2cnc3c(NCc4ccco4)nccn23)cc1OC [Compound 68] | 1000 to 20000 nM | < 35 µM |
| COC(=O)c1ccc(CNc2nccn3c(-c4ccc(OC)c(OC)c4)cnc23)cc1 [Compound 13] | 1000 to 20000 nM | < 35 µM |
| NS(=O)(=O)c1ccc(CNc2nc(-c3ccc(O)cc3)cn3c(-c4ccc(O)cc4)cnc23)cc1 [Compound 114, 4-{[3,6-Bis-(4-hydroxy-phenyl)-imidazo[1,2-a]pyrazin-8-ylamino]-methyl}-benzenesulfonamide] | < 1000 nM | < 35 µM |
| NS(=O)(=O)c1ccc(CNc2nccn3c(-c4ccc(O)c(F)c4)cnc23)cc1 [Compound 25] | < 1000 nM | > 35 µM |
| COc1cc(-c2c(C)nc3c(NCc4ccc(S(N)(=O)=O)cc4)nccn23)ccc1O [Compound 105] | < 1000 nM | > 35 µM |
| Oc1cccc(-c2cnc3c(NCc4cccnc4)nccn23)c1 [Compound 76] | 1000 to 20000 nM | < 35 µM |
| NS(=O)(=O)c1ccc(CNc2nc(Br)cn3c(Br)cnc23)cc1 [Compound 113, 4-[(3,6-Dibromo-imidazo[1,2-a]pyrazin-8-ylamino)-methyl]-benzenesulfonamide] | > 20000 nM | > 35 µM |
| NS(=O)(=O)c1cccc(CNc2nccn3c(-c4ccc(O)c(F)c4)cnc23)c1 [Compound 57] | < 1000 nM | > 35 µM |
| CCNS(=O)(=O)c1ccc(CNc2nccn3c(-c4ccc(OC)cc4)cnc23)cc1 [Compound 101] | 1000 to 20000 nM | > 35 µM |
| Oc1ccc(-c2cnc3c(Nc4ccccc4)nccn23)cc1 [Compound 96] | > 20000 nM | > 35 µM |
| Cc1cc(-c2cnc3c(NCc4ccc(S(N)(=O)=O)cc4)nccn23)ccc1O [Compound 88, 4-{[3-(4-Hydroxy-3-methyl-phenyl)-imidazo[1,2-a]pyrazin-8-ylamino]-methyl}-benzenesulfonamide] | < 1000 nM | > 35 µM |
| COc1ccc(-c2cnc3c(NCc4ccc(Cl)cc4)nccn23)cc1OC [Compound 97] | 1000 to 20000 nM | < 35 µM |
| Cc1ccccc1CNc1nccn2c(-c3ccc(O)cc3)cnc12 [Compound 36] | 1000 to 20000 nM | < 35 µM |
| CS(=O)(=O)Nc1ccc(-c2cnc3c(NCc4ccc(S(N)(=O)=O)cc4)nccn23)cc1 [Compound 28] | > 20000 nM | > 35 µM |
| OCc1ccc(-c2cnc3c(NCc4ccc5c(c4)OCO5)nccn23)cc1 [Compound 81] | 1000 to 20000 nM | < 35 µM |
| OCc1ccc(-c2cnc3c(NCc4ccc(F)cc4)nccn23)cc1 [Compound 79] | 1000 to 20000 nM | < 35 µM |
| CC(=O)Nc1ccc(-c2cnc3c(NCc4ccc(S(N)(=O)=O)cc4)nccn23)cc1 [Compound 27] | 1000 to 20000 nM | > 35 µM |
| COc1ccc(-c2cnc3c(NCc4ccc(S(N)(=O)=O)cc4)nccn23)cc1OC [Compound 9] | < 1000 nM | > 35 µM |
